The subject of the experiment is B6C3F1 mice, B16 melanoma ip, median survival T/C. As to the kind of experiment: NCI In Vivo Anticancer Drug Screen. Data for tumor model B16 Melanoma (intraperitoneal) in B6C3F1 mice. The following applies: endpoint: median survival time, higher = longer survival. The method in brief:
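Readout: survival or tumor size in treated mice relative to vehicle controls (T/C). Model uses transplantable tumors grown in mice.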

Setting [1] is: dose: 12.5 mg/kg/injection, schedule: Q01DX009 (ip), vehicle: saline.
[2] abbreviates: dose: 50.0 mg/kg/injection, schedule: Q01DX009 (ip), vehicle: saline.
Where [3] appears, read: dose: 12.5 mg/kg/injection, schedule: Q01DX009 (ip), vehicle: saline with Tween-80.
The mark [4] stands for this setting: dose: 25.0 mg/kg/injection, schedule: Q01DX009 (ip), vehicle: saline with Tween-80.
Where [5] appears, read: dose: 50.0 mg/kg/injection, schedule: Q01DX009 (ip), vehicle: saline with Tween-80.
Where [6] appears, read: dose: 100.0 mg/kg/injection, schedule: Q01DX009 (ip), vehicle: saline with Tween-80.
Setting [7] is: dose: 200.0 mg/kg/injection, schedule: Q01DX009 (ip), vehicle: saline with Tween-80.
Setting [8] is: dose: 6.25 mg/kg/injection, schedule: Q01DX009 (ip), vehicle: saline with Tween-80.
Setting [9] is: dose: 4.0 mg/kg/injection, schedule: Q01DX009 (ip), vehicle: saline.
The mark [10] stands for this setting: dose: 8.0 mg/kg/injection, schedule: Q01DX009 (ip), vehicle: saline.
Where [11] appears, read: dose: 16.0 mg/kg/injection, schedule: Q01DX009 (ip), vehicle: saline.
Setting [12] is: dose: 25.0 mg/kg/injection, schedule: Q01DX009 (ip), vehicle: saline.
Setting [13] is: dose: 100.0 mg/kg/injection, schedule: Q01DX009 (ip), vehicle: saline.

In PubChem BioAssay AID200 (DTP/NCI, 2004) one finds T/C data, which are given here for 13 molecules.

Values joined by “and” are separate entries in the source; they are usually repeats but may differ in a detail not shown here. Equal entries are not always repeated. Toxic doses and inconclusive results are not listed.

Take `O=P1(N(CCCl)CCCl)NCCCO1` (stereo unspecified): the T/C reads like this: under setting [1], 121 % of control; (dose: 18.75 mg/kg/injection, schedule: Q01DX005 (ip), vehicle: saline) 104 % of control; (dose: 18.75 mg/kg/injection, schedule: Q01DX005 (iv), vehicle: saline) 111 % of control; (dose: 25.0 mg/kg/injection, schedule: Q01DX001 (ip), vehicle: saline) 108 % of control and 103 % of control; (dose: 37.5 mg/kg/injection, schedule: Q01DX001 (ip), vehicle: saline) 106 % of control; (dose: 37.5 mg/kg/injection, schedule: Q01DX001 (iv), vehicle: saline) 104 % of control. Also, the T/C runs as follows: (dose: 37.5 mg/kg/injection, schedule: Q01DX005 (ip), vehicle: saline) 121 % of control; (dose: 50.0 mg/kg/injection, schedule: Q01DX001 (ip), vehicle: saline) 111 % of control and 103 % of control; under setting [2], 154 % of control; (dose: 75.0 mg/kg/injection, schedule: Q01DX001 (ip), vehicle: saline) 116 % of control; (dose: 75.0 mg/kg/injection, schedule: Q01DX001 (iv), vehicle: saline) 114 % of control; (dose: 75.0 mg/kg/injection, schedule: Q01DX005 (iv), vehicle: saline) 166 % of control. For the same molecule, the T/C (dose: 150.0 mg/kg/injection, schedule: Q01DX005 (ip), vehicle: saline) is 190 % of control; the T/C (dose: 200.0 mg/kg/injection, schedule: Q01DX001 (ip), vehicle: saline) is 157 % of control and 161 % of control; the T/C (dose: 300.0 mg/kg/injection, schedule: Q01DX001 (ip), vehicle: saline) was 185 % of control; the T/C (dose: 300.0 mg/kg/injection, schedule: Q01DX001 (iv), vehicle: saline) is 166 % of control.

For `O=P(O)(NCCCl)NCCCl`, the T/C (dose: 25.0 mg/kg/injection, schedule: Q01DX001 (ip), vehicle: saline with Tween-80) was 114 % of control and 119 % of control; the T/C (dose: 50.0 mg/kg/injection, schedule: Q01DX001 (ip), vehicle: saline with Tween-80) is 115 % of control; the T/C (dose: 100.0 mg/kg/injection, schedule: Q01DX001 (ip), vehicle: saline with Tween-80) is 159 % of control and 161 % of control; the T/C (dose: 200.0 mg/kg/injection, schedule: Q01DX001 (ip), vehicle: saline with Tween-80) is 168 % of control and 182 % of control.

For `C[Si](C)(C)n1nnn(-c2ccccc2)c1=O`, the T/C under setting [3] was 101 % of control and 103 % of control; the T/C under setting [4] is 100 % of control and 105 % of control; the T/C under setting [5] was 119 % of control and 100 % of control; the T/C under setting [6] was 92 % of control and 95 % of control; the T/C under setting [7] was 93 % of control and 101 % of control; the T/C (dose: 400.0 mg/kg/injection, schedule: Q01DX009 (ip), vehicle: saline with Tween-80) was 95 % of control.

In the case of `ClC1=C(Cl)C2(Cl)C3C(Cl)C(Cl)CC3C1(Cl)C2(Cl)Cl` (stereo unspecified), the T/C was 106 % of control (dose: 1.56 mg/kg/injection, schedule: Q01DX009 (ip), vehicle: saline with Tween-80); 98 % of control (dose: 3.12 mg/kg/injection, schedule: Q01DX009 (ip), vehicle: saline with Tween-80); 101 % of control under setting [8]; 97 % of control under setting [3]; 95 % of control (dose: 25.0 mg/kg/injection, schedule: Q01DX009 (ip), vehicle: other); 87 % of control under setting [4]. For the same molecule, the T/C (dose: 50.0 mg/kg/injection, schedule: Q01DX009 (ip), vehicle: other) is 106 % of control and the T/C (dose: 100.0 mg/kg/injection, schedule: Q01DX009 (ip), vehicle: other) is 97 % of control.

For the molecule `[N-]=[N+]=CC(=O)CCC(=O)C=[N+]=[N-]`, the T/C (dose: 1.56 mg/kg/injection, schedule: Q01DX009 (ip), vehicle: DMSO) was 124 % of control.

With `COc1cc(NC(N)=O)ccc1Nc1c2ccc(N)cc2nc2cc(N)ccc12`, the T/C runs as follows: (dose: 0.5 mg/kg/injection, schedule: Q01DX009 (ip), vehicle: saline) 93 % of control; (dose: 1.0 mg/kg/injection, schedule: Q01DX009 (ip), vehicle: saline) 111 % of control; (dose: 2.0 mg/kg/injection, schedule: Q01DX009 (ip), vehicle: saline) 101 % of control; under setting [9], 86 % of control; under setting [10], 93 % of control; under setting [11], 98 % of control.

Turning to `C=C(C)C(=NC(C)(C)C)Nc1ccccc1`, the T/C was 98 % of control under setting [8]; 122 % of control under setting [3]; 109 % of control under setting [4]; 91 % of control under setting [5]; 96 % of control under setting [6]; 114 % of control under setting [7].

Turning to `CCN1/C(=C/C(C)=C/c2sc3ccc4ccccc4c3[n+]2CC)Sc2ccc3ccccc3c21`, the T/C runs as follows: (dose: 0.02 mg/kg/injection, schedule: Q01DX009 (ip), vehicle: saline with Tween-80) 95 % of control; (dose: 0.05 mg/kg/injection, schedule: Q01DX009 (ip), vehicle: saline with Tween-80) 106 % of control.

Turning to `Cc1ccc2nc(-c3ccc4nc(-c5ccc(N=Nc6ccc(-c7nc8ccc(-c9nc%10ccc(C)c(S(=O)(=O)O)c%10s9)cc8s7)cc6)cc5)sc4c3)sc2c1S(=O)(=O)O`, the T/C under setting [1] is 87 % of control, the T/C under setting [12] was 86 % of control and the T/C under setting [13] is 88 % of control.

`CC1([CH2][Hg][I])COCC([CH2][Hg][I])O1` (stereo unspecified): the T/C is, setting by setting: (dose: 5.0 mg/kg/injection, schedule: Q01DX009 (ip), vehicle: Klucel (hydroxypropylcellulose) (HPC)) 100 % of control; (dose: 10.0 mg/kg/injection, schedule: Q01DX009 (ip), vehicle: Klucel (hydroxypropylcellulose) (HPC)) 102 % of control; (dose: 20.0 mg/kg/injection, schedule: Q01DX009 (ip), vehicle: Klucel (hydroxypropylcellulose) (HPC)) 86 % of control.

For the molecule `CC(=O)OCC1OC(n2ccc(N)nc2=O)C(OC(C)=O)C1OC(C)=O` (stereo unspecified), the T/C reads like this: under setting [1], 106 % of control; under setting [12], 104 % of control; under setting [2], 109 % of control; under setting [13], 108 % of control; (dose: 200.0 mg/kg/injection, schedule: Q01DX009 (ip), vehicle: saline) 120 % of control.

Take `CCOC(=O)Nc1cc2c(c(N)n1)N=C(CN(C)c1ccccc1)CN2`: the T/C (dose: 0.78 mg/kg/injection, schedule: Q01DX009 (ip), vehicle: Klucel (hydroxypropylcellulose) (HPC)) is 93 % of control; the T/C (dose: 1.56 mg/kg/injection, schedule: Q01DX009 (ip), vehicle: Klucel (hydroxypropylcellulose) (HPC)) was 116 % of control; the T/C (dose: 3.12 mg/kg/injection, schedule: Q01DX009 (ip), vehicle: Klucel (hydroxypropylcellulose) (HPC)) was 114 % of control; the T/C (dose: 6.25 mg/kg/injection, schedule: Q01DX009 (ip), vehicle: Klucel (hydroxypropylcellulose) (HPC)) was 117 % of control.

In the case of `O=[N+]([O-])O.[Ga]`, the T/C is 105 % of control under setting [9]; 99 % of control (dose: 4.0 mg/kg/injection, schedule: Q01DX009 (ip), vehicle: water); 98 % of control under setting [10]; 95 % of control (dose: 8.0 mg/kg/injection, schedule: Q01DX009 (ip), vehicle: water); 101 % of control under setting [11]; 100 % of control (dose: 16.0 mg/kg/injection, schedule: Q01DX009 (ip), vehicle: water). Besides, the T/C under setting [12] is 101 % of control; the T/C (dose: 32.0 mg/kg/injection, schedule: Q01DX009 (ip), vehicle: saline) is 95 % of control; the T/C (dose: 32.0 mg/kg/injection, schedule: Q01DX009 (ip), vehicle: water) was 97 % of control; the T/C under setting [2] was 100 % of control; the T/C (dose: 64.0 mg/kg/injection, schedule: Q01DX009 (ip), vehicle: saline) is 91 % of control; the T/C (dose: 64.0 mg/kg/injection, schedule: Q01DX009 (ip), vehicle: water) is 96 % of control.
